Measurements: US5744298A, “DNA sequences which encode immunoreactive HCMV-specific peptides” (Behringwerke Aktiengesellschaft, priority 1991, dated 1998)
Where no end group is shown, it is not given here.

Legend:
[1] = system: CMV IgG-positive sera; experiment: ELISA of peptide-coated microtiter plates with CMV IgG-positive human sera (localization of epitopes); format: binding; conditions: plate coated with 2.5 μg peptide per ml, serum dilution 1:2; for Reactivity (individual reactivities of particularly reactive peptides with the assayed group of CMV IgG-positive sera, in percent): Table 3
Procedure: A microtiter plate with 96 wells was coated with a synthesized peptide. To do this, a solution of 2.5 μg of peptide per ml of carbonate buffer was made up and introduced in 100 μl portions into the wells for the coating. The peptides were adsorbed onto the surfaces at 4° C. overnight and, after removal of the peptide solution, the wells were washed several times with washing buffer (50 mM Tris, pH 7.2, 10 mM EDTA, 0.2% Tween 20). Then individual human serum samples in a 1:2 dilution were introduced and incubated at 37° C. for 1 hour. After another washing step, the conjugate antibody specific for human IgG antibodies or human IgM antibodies and labeled with peroxidase was added and the mixture was incubated at room temperature for 0.5 hour. The reaction was subsequently stopped by adding 0.5M sulfuric acid and extinction of the individual samples was measured at a wavelength of 450/650 nm in a photometer.
To test the immunogenicity, peptides of various length from the complete amino-acid sequence region from 718 to 880 of the HCMV protein pp150 (Tab. 2 and 3) were synthesized as described in Example 1. Subsequently, as in Example 2, the microtiter plates were coated with the synthesized peptides, and the immunological reactivity was assayed. […] The three immunologically reactive peptides have the following sequences: […]

[2] = system: monoclonal antibody 87-55/02; experiment: Reaction of the monoclonal antibody 87-55/02 with peptide epitopes (ELISA, immunoblot); format: binding; conditions: measured as immunoblot and ELISA reactivity
Excerpt: It was concluded from the method for selecting the monoclonal antibody that the identified epitope must have a very important structure which is not even destroyed by denaturation of the complete protein. This monoclonal antibody correspondingly reacts both with the synthesized peptide 2.7 (SEQ ID NO:26) and with the recombinant protein XP1 (SEQ ID NO:33) and the pp150 protein of HCMV.

With “ala tyr lys phe glu gln pro thr leu thr phe gly ala gly val asn val pro ala gly ala gly ala ala ile leu thr pro thr pro val asn pro ser thr ala pro ala pro ala pro (AYKFGQPTLTFGAGVNVPAGAGAAILTPTPVNPSTAPAPAP) [Peptide 1.13]” the “Reactivity (individual reactivities of particularly reactive peptides with the assayed group of CMV IgG-positive sera, in percent)” value [1] was 90%.

With “phe glu gln pro thr leu thr phe gly ala gly val asn val pro ala gly ala gly ala ala ile leu thr pro thr pro val asn pro ser thr ala pro ala pro ala (FEQPTTLTFGAGVNVPAGAGAAILTPTPVNPSTAPAPA) [Peptide 1.4]” the “Reactivity (individual reactivities of particularly reactive peptides with the assayed group of CMV IgG-positive sera, in percent)” value [1] was 90%.

With “pro thr leu thr phe gly ala gly val asn val pro ala gly ala gly ala ala ile leu thr pro thr pro val asn pro ser thr ala pro ala pro ala pro NH2 (PTLTFGAGVNVPAGAGAAILTPTPVNPSTAPAPAP-NH2) [Peptide 1.6]” the “Reactivity (individual reactivities of the synthetic pXP1 segments with the assayed group of CMV IgG-positive sera, in percent)” value ([1]; Table 2) was 90% and the “Reactivity (individual reactivities of particularly reactive peptides with the assayed group of CMV IgG-positive sera, in percent)” value [1] was 90%.

B1: recombinant protein XP1: recombinant protein section, amino acid 718-880 of HCMV protein pp150 (protein)
chain: DPRFTDTLVDITDTETSAKPPVTTAYKFEQPTLTFGAGVNVPAGAGAAILTPTPVNPSTAPAPAPTPTFAGTQTPVNGNSPWAPTAPLPGDMNPANWPRERAWALKNPHLAYNPFRMPTTSTASQNTVSTTPRRPSTPRAAVTQTASRDAADEVWALRDQTA
For B1, the “immunological reaction of monoclonal antibody 87-55/02 with protein” value [2] was “reacts”.

B2: HCMV protein pp150: HCMV protein pp150 (protein, UniProt P08318 1-1048, looked up)
Large structural …: MSLQFIGLQRRDVVALVNFLRHLTQKPDVDLEAHPKILKKCGEKRLHRRTVLFNELMLWLGYYRELRFHNPDLSSVLEEFEVRCVAVARRGYTYPFGDRGKARDHLAVLDRTEFDTDVRHDAEIVERALVSAVILAKMSVRETLVTAIGQTEPIAFVHLKDTEVQRIEENLEGVRRNMFCVKPLDLNLDRHANTALVNAVNKLVYTGRLIMNVRRSWEELERKCLARIQERCKLLVKELRMCLSFDSNYCRNILKHAVENGDSADTLLELLIEDFDIYVDSFPQSAHTFLGARSPSLEFDDDANLLSLGGGSAFSSVPKKHVPTQPLDGWSWIASPWKGHKPFRFEAHGSLAPAAEAHAARSAAVGYYDEEEKRRERQKRVDDEVVQREKQQLKAWEERQQNLQQRQQQPPPPARKPSASRRLFGSSADEDDDDDDDEKNIFTPIKKPGTSGKGAASGGGVSSIFSGLLSSGSQKPTSGPLNIPQQQQRHAAFSLVSPQVTKASPGRVRRDSAWDVRPLTETRGDLFSGDEDSDSSDGYPPNRQDPRFTDTLVDITDTETSAKPPVTTAYKFEQPTLTFGAGVNVPAGAGAAILTPTPVNPSTAPAPAPTPTFAGTQTPVNGNSPWAPTAPLPGDMNPANWPRERAWALKNPHLAYNPFRMPTTSTASQNTVSTTPRRPSTPRAAVTQTASRDAADEVWALRDQTAESPVEDSEEEDDDSSDTGSVVSLGHTTPSSDYNNDVISPPSQTPEQSTPSRIRKAKLSSPMTTTSTSQKPVLGKRVATPHASARAQTVTSTPVQGRLEKQVSGTPSTVPATLLQPQPASSKTTSSRNVTSGAGTSSASSARQPSASASVLSPTEDDVVSPATSPLSMLSSASPSPAKSAPPSPVKGRGSRVGVPSLKPTLGGKAVVGRPPSVPVSGSAPGRLSGSSRAASTTPTYPAVTTVYPPSSTAKSSVSNAPPVASPSILKPGASAALQSRRSTGTAAVGSPVKSTTGMKTVAFDLSSPQKSGTGPQPGSAGMGGAKTPSDAVQNILQKIEKIKNTEE
With B2 the “immunological reaction of monoclonal antibody 87-55/02 with protein” value [2] was “unambiguous immunological reaction”.
